The text below walks through data of patent US20240270744A1 (Hoffmann-La Roche Inc., priority 2021, published 2024).

Each structure is given as a SMILES string. Read-outs that look alike come from different tables or passages of the source.

In assay [1] the target is human GABAA α1β3γ2 receptor (Homo sapiens (Human), UniProt P14867+P18507). Nature of the assay: Radioligand binding assay, competition for [3H]Flumazenil, γ2-containing GABAA subtypes. To be noted: read-out: Ki h-GABAA α1β3γ2. The protocol: The affinity of compounds at GABAA γ2 subunit-containing receptors was measured by competition for [^3H]Flumazenil (81.1 Ci/mmol; Roche) binding to HEK293F cells expressing human (transiently transfected) receptors of composition α1β3γ2.
Harvested pellets from HEK293F cells expressing the different GABAA γ2 receptor subtypes were resuspended in Mannitol Buffer pH 7.2-7.4 and processed as described above for the cells expressing the GABAA γ1 subunit-containing receptors.
Assays were incubated to equilibrium for 1 hour at 4° C. and harvested onto GF/C uni-filters (Packard) by filtration using a Packard harvester and washing with ice-cold wash buffer (50 mM Tris; pH 7.5). After anhydrousing, filter-retained radioactivity was detected by liquid scintillation counting. Ki values were calculated using Excel-Fit (Microsoft) and are the means of two determinations.

The target of assay [2] is human GABAA α2β2γ1 receptor (Homo sapiens (Human), UniProt P47869+Q8N1C3). Put plainly: Radioligand binding assay, competition for [3H]RO7239181, γ1-containing GABAA subtypes. As to conditions: for LogSel: Log of the γ2/γ1 Ki ratio. Here is the method: (§1) The affinity of compounds at GABAA γ1 subunit-containing receptors was measured by competition for [^3H]RO7239181 (67.3 Ci/mmol; Roche) binding to membranes from HEK293F cells (ThermoFisher R79007) expressing human (transiently transfected) receptors of composition α5β2γ1, α2β2γ1, α1β2γ1.
(§2) Harvested pellets from HEK293F cells expressing the different GABAA receptor subtypes were resuspended in Mannitol Buffer pH 7.2-7.4 (Mannitol 0.29 M, Triethylamine 10 mM, Acetic acid 10 mM, EDTA 1 mM plus protease inhibitors (20 tablets Complete, Roche Diagnostics Cat. No. 05 056 489 001 per liter)), washed two times and then resuspended at 1:10 to 1:15 dilution in the same buffer. Cell disruption was performed by stirring the suspension in a Parr vessel #4637 at 435 psi for 15 minutes, and then the suspensions were centrifuged at 1000×g for 15 minutes at 4° C. (Beckman Avanti J-HC: rotor JS-4.2). The supernatant (S1) was transferred in a 21 Schott flask and the pellet (P1) was resuspended with Mannitol Buffer up to 175 ml. The resuspended pellet was transferred into a 250 ml Corning centrifugal beaker and centrifuged at 1500×g for 10 minutes at 4° C. (Beckman Avanti J-HC: rotor JS-4.2). The supernatant (S1) was then transferred in the 21 Schott flask and the pellet was discarded. The supernatants (S1) were centrifuged in 500 ml Beckman polypropylene centrifugal beaker at 15′000×g for 30 minutes at 4° C. (Beckman Avanti J-20 XP; rotor JLA-10.500). The pellet (P2) was resuspended with Mannitol Buffer 1:1 and frozen at −80° C. The supernatant (S2) was centrifuged in 100 ml Beckman polypropylene centrifugal tubes at 48000×g for 50 minutes at 4° C. (Beckman Avanti J-20 XP; rotor JA-18). The supernatant (S3) was discarded and the pellet (P3) was resuspended with 1:1 Mannitol Buffer. The P2 and P3 protein concentration was determined with the BIORAD Standard assay method with bovine serum albumin as standard and measured on the NANO-Drop 1000. The membrane suspension was aliquots (500 μl per tube) and stored at −80° C. until required.
(§3) Membrane homogenates were resuspended and polytronised (Polytron PT1200E Kinematica AG) in Potassium Phosphate 10 mM, KCl 100 mM binding buffer at pH 7.4 to a final assay concentration determined with a previous experiment.
(§4) Assays were incubated to equilibrium for 1 hour at 4° C. and then, membranes were filtered onto unifilter (96-well white microplate with bonded GF/C filters preincubated 20-50 minutes in 0.3% Polyethylenimine) with a Filtermate 196 harvester (Packard BioScience) and washed 4 times with cold Potassium Phosphate 10 mM pH 7.4, KCl 100 mM binding buffer. After anhydrousing, filter-retained radioactivity was detected by liquid scintillation counting. Ki values were calculated using Excel-Fit (Microsoft) and are the means of two determinations.

Assay [3] deals with human GABAA α1β2γ1 receptor (Homo sapiens (Human), UniProt P14867+Q8N1C3). The description is as above. The protocol:
as §1, §2, §3, §4

[4] abbreviates: Table 1, [3H]Flumazenil displacement, HEK293F cells, mean of two determinations.
[5] abbreviates: Ki h-GABAA α2β2γ1, Table 1, [3H]RO7239181 displacement, membranes from HEK293F cells, mean of two determinations.
Setting [6] is: Ki h-GABAA α2β2γ1, Table 2, [3H]RO7239181 displacement.
[7] abbreviates: Table 1, Ki α1β3γ2 (nM)/Ki α2β2γ1 (nM).
Setting [8] is: Table 3, reference compounds comparison.

Consider `Cc1nnc2n1-c1cnc(Cl)c(Cl)c1C(c1c(F)cccc1F)=N[C@H]2C` [Example 1, (7S)-11,12-dichloro-9-(2,6-difluorophenyl)-3,7-dimethyl-2,4,5,8,13-pentazatricyclo[8.4.0.02,6]tetradeca-1(10),3,5,8,11,13-hexaene], for which the values for the Ki in assay [1] (setting [4]), in assay [2] (setting [5]) and in assay [2] (setting [6]) were 1090 nM, 31.7 nM and 31.7 nM, respectively. Besides, the “γ2/γ1 Selectivity Ratio” value in assay [2] (setting [7]) is on record as 34. In addition, the LogSel in assay [2] (Table 1) turned out to be 1.53.

Take `Cc1nnc2n1-c1cnc(C3CC3)c(Cl)c1C(c1c(F)cccc1F)=N[C@H]2C` [Example 2, (7S)-11-chloro-12-cyclopropyl-9-(2,6-difluorophenyl)-3,7-dimethyl-2,4,5,8,13-pentazatricyclo[8.4.0.02,6]tetradeca-1(10),3,5,8,11,13-hexaene]: the inhibitory constant (Ki) came out at 3290 nM in assay [1] (setting [4]); 143 nM in assay [2]; 143 nM in assay [2] (read-out: Ki h-GABAA α2β2γ1, Table 2, [3H]RO7239181 displacement). Besides, the “γ2/γ1 Selectivity Ratio” value in assay [2] (setting [7]) came to 23. Besides, the LogSel in assay [2] (Table 1) came out at 1.36.

Regarding `Cc1ncc2c(c1Cl)C(c1c(F)cccc1F)=N[C@@H](C)c1nnc(C)n1-2` [Example 3, (7S)-11-chloro-9-(2,6-difluorophenyl)-3,7,12-trimethyl-2,4,5,8,13-pentazatricyclo[8.4.0.02,6]tetradeca-1(10),3,5,8,11,13-hexaene], the values for the Ki in assay [1] (setting [4]), in assay [2] (setting [5]) and in assay [2] (setting [6]) were 1790 nM, 51.6 nM and 51.6 nM, respectively. In addition, in assay [2] (setting [7]), the “γ2/γ1 Selectivity Ratio” value turned out to be 35. Moreover, in assay [2] (Table 1), the LogSel came out at 1.54.

For the compound `Cc1nnc2n1-c1cnc(C(F)(F)F)c(Cl)c1C(c1c(F)cccc1F)=N[C@H]2C` [Example 4, (7S)-11-chloro-9-(2,6-difluorophenyl)-3,7-dimethyl-12-(trifluoromethyl)-2,4,5,8,13-pentazatricyclo[8.4.0.02,6]tetradeca-1(10),3,5,8,11,13-hexaene], the Ki was determined as 7270 nM in assay [1] (setting [4]); 7270 nM in assay [1] (setting [8]); 51.6 nM in assay [3] (Table 1, [3H]RO7239181 displacement, membranes from HEK293F cells, mean of two determinations); 51.6 nM in assay [3] (setting [8]); 64.3 nM in assay [2] (setting [5]); 64.3 nM in assay [2] (setting [6]). The inhibition constant (Ki) in assay [2] (Ki h-GABAA α2β2γ1, Table 3, reference compounds comparison) is 64.3 nM. In addition, the “γ2/γ1 Selectivity Ratio” value is reported as 113 in assay [2] (setting [7]) and 113 in assay [2] (Table 3, Ki α1β3γ2/Ki α2β2γ1). Also, the LogSel in assay [2] (Table 1) is 2.05; in assay [2] (Table 3) it was 2.1.

Turning to `Cc1nc2n(n1)-c1cnc(C(F)(F)F)c(Cl)c1C(c1c(F)cccc1F)=N[C@H]2C` [Example 5], the inhibitory constant (Ki) in assay [1] (setting [4]) worked out at 4740 nM; in assay [2] (Table 1, [3H]RO7239181 displacement, membranes from HEK293F cells, mean of two determinations, read-out: Ki h-GABAA α2β2γ1), 40 nM; in assay [2] (Table 2, [3H]RO7239181 displacement, read-out: Ki h-GABAA α2β2γ1) it was 40 nM. In addition, the “γ2/γ1 Selectivity Ratio” value in assay [2] (setting [7]) came out at 118. Moreover, the LogSel in assay [2] (Table 1) was found to be 2.07.

On to `C[C@@H]1N=C(c2c(F)cccc2F)c2c(cnc(C(F)(F)F)c2Cl)-n2nc(C(=O)N3CCC3)nc21` [Example 6, azetidin-1-yl-[(7S)-11-chloro-9-(2,6-difluorophenyl)-7-methyl-12-(trifluoromethyl)-2,3,5,8,13-pentazatricyclo[8.4.0.02,6]tetradeca-1(10),3,5,8,11,13-hexaen-4-yl]methanone], for which the Ki in assay [1] (setting [4]) was 10200 nM; in assay [2] (setting [5]), 45.2 nM; in assay [2] (setting [6]), 45.2 nM. For the same compound, in assay [2] (setting [7]), the “γ2/γ1 Selectivity Ratio” value worked out at 227. Besides, the LogSel in assay [2] (Table 1) worked out at 2.36.

Turning to `C[C@@H]1N=C(c2c(F)cccc2F)c2c(cnc(C(F)(F)F)c2Cl)-n2nc(C(=O)N3CC(F)C3)nc21` [Example 7, [(7S)-11-chloro-9-(2,6-difluorophenyl)-7-methyl-12-(trifluoromethyl)-2,3,5,8,13-pentazatricyclo[8.4.0.02,6]tetradeca-1(10),3,5,8,11,13-hexaen-4-yl]-(3-fluoroazetidin-1-yl)methanone], the figures for the Ki in assay [1] (setting [4]), in assay [2] (setting [5]) and in assay [2] (setting [6]) were 5100 nM, 20.2 nM and 20.2 nM, respectively. In addition, the “γ2/γ1 Selectivity Ratio” value in assay [2] (setting [7]) stood at 253. Further, the LogSel in assay [2] (Table 1) is 2.40.

Consider `C[C@@H]1N=C(c2c(F)cccc2F)c2c(cnc(C(F)(F)F)c2Cl)-n2nc(NC(=O)C3COC3)nc21` [Example 12, N-[(7S)-11-chloro-9-(2,6-difluorophenyl)-7-methyl-12-(trifluoromethyl)-2,3,5,8,13-pentazatricyclo[8.4.0.02,6]tetradeca-1(10),3,5,8,11,13-hexaen-4-yl]oxetane-3-carboxamide], for which the inhibition constant Ki in assay [1] (setting [4]) stood at 12300 nM; in assay [2] (setting [5]), 69.2 nM; in assay [2] (setting [6]), 69.2 nM. The “γ2/γ1 Selectivity Ratio” value in assay [2] (setting [7]) is recorded as 178. For the same compound, the LogSel in assay [2] (Table 1) was 2.25.

With `C[C@@H]1N=C(c2c(F)cccc2F)c2c(cnc(C(F)(F)F)c2Cl)-n2nc(N3CCCC3=O)nc21` [Example 13, 1-[(7S)-11-chloro-9-(2,6-difluorophenyl)-7-methyl-12-(trifluoromethyl)-2,3,5,8,13-pentazatricyclo[8.4.0.02,6]tetradeca-1(10),3,5,8,11,13-hexaen-4-yl]pyrrolidin-2-one], the Ki was 5300 nM in assay [1] (setting [4]), 32 nM in assay [2] (setting [5]) and 32 nM in assay [2] (setting [6]). Further, the “γ2/γ1 Selectivity Ratio” value in assay [2] (setting [7]) was found to be 166. The LogSel in assay [2] (Table 1) is 2.22.

For `C[C@@H]1N=C(c2c(F)cccc2F)c2c(cnc(C(F)(F)F)c2Cl)-n2c1nc1c2CCC1` [Example 20, (10S)-6-chloro-8-(2,6-difluorophenyl)-10-methyl-5-(trifluoromethyl)-1,4,9,12-tetrazatetracyclo[9.6.0.02,7.013,17]heptadeca-2(7),3,5,8,11,13(17)-hexaene], the Ki in assay [1] (setting [4]) was 1090 nM; in assay [2] (setting [5]), 11.8 nM; in assay [2] (setting [6]), 15.1 nM. In addition, the “γ2/γ1 Selectivity Ratio” value in assay [2] (setting [7]) was 92. In addition, in assay [2] (Table 1), the LogSel was found to be 1.96.

As for `C[C@@H]1N=C(c2c(F)cccc2F)c2c(cnc(C(F)(F)F)c2Cl)-n2nc(C(=O)NCC(C)(C)O)nc21` [Example 21, (7S)-11-chloro-9-(2,6-difluorophenyl)-N-(2-hydroxy-2-methyl-propyl)-7-methyl-12-(trifluoromethyl)-2,3,5,8,13-pentazatricyclo[8.4.0.02,6]tetradeca-1(10),3,5,8,11,13-hexaene-4-carboxamide], the Ki was 11300 nM in assay [1] (setting [4]), 72.3 nM in assay [2] (setting [5]) and 72.3 nM in assay [2] (setting [6]). In assay [2] (setting [7]), the “γ2/γ1 Selectivity Ratio” value is reported as 156. In addition, the LogSel in assay [2] (Table 1) amounted to 2.19.

Regarding `C[C@@H]1N=C(c2c(F)cccc2F)c2c(cnc(C(F)(F)F)c2Cl)-n2nc(C(=O)NCC3(O)CC3)nc21` [Example 22, (7S)-11-chloro-9-(2,6-difluorophenyl)-N-[(1-hydroxycyclopropyl)methyl]-7-methyl-12-(trifluoromethyl)-2,3,5,8,13-pentazatricyclo[8.4.0.02,6]tetradeca-1(10),3,5,8,11,13-hexaene-4-carboxamide], the values for the inhibition constant (Ki) in assay [1] (setting [4]), in assay [2] (setting [5]) and in assay [2] (setting [6]) were 10600 nM, 43.2 nM and 43.2 nM, respectively. Besides, the “γ2/γ1 Selectivity Ratio” value in assay [2] (setting [7]) amounted to 245. Further, the LogSel in assay [2] (Table 1) came out at 2.39.
